Reference: patent US20100330116A1, “LIVE […] USE AS VACCINE” (The University of Queensland, priority 2004, published 2010)

Assays:
[1] = test system: FD436; experiment: MIC determination of nalidixic acid and rifampicin (broth dilution, Bioscreen turbidity); conditions: TSB, 37° C., 24 h
[2] = test system: FD436; experiment: MBC determination of nalidixic acid and rifampicin (growth on SBA plates); conditions: TSB, then SBA 37° C., 48 h

CCn1cc(C(=O)O)c(=O)c2ccc(C)nc21 [Nalidixic acid]
MIC for FD436 [1]: 0.00125 % (w/v)
MBC for FD436 [2]: 0.00125 % (w/v)

CO[C@H]1/C=C/O[C@@]2(C)Oc3c(C)c(O)c4c(O)c(c(/C=N/N5CCN(C)CC5)c(O)c4c3C2=O)NC(=O)/C(C)=C\C=C\[C@H](C)[C@H](O)[C@@H](C)[C@@H](O)[C@@H](C)[C@H](OC(C)=O)[C@@H]1C [Rifampicin]
MIC for FD436 [1]: 0.0025 % (w/v)
MBC for FD436 [2]: 0.0025 % (w/v)
